{"source": "PubChem BioAssay (NCI)", "experiment_in_all_cases": "NCI-60 cell line screen, 384-well format", "key": {"[1]": {"tested_on": "UACC-257 melanoma"}, "[2]": {"tested_on": "UO-31 renal"}, "[3]": {"tested_on": "MALME-3M melanoma"}, "[4]": {"tested_on": "RPMI-8226 leukemia"}, "[5]": {"tested_on": "M14 melanoma"}, "[6]": {"tested_on": "COLO 205 colon"}, "[7]": {"tested_on": "HL-60(TB) leukemia"}, "[8]": {"tested_on": "786-0 renal"}, "[9]": {"tested_on": "SK-MEL-5 melanoma"}, "[10]": {"tested_on": "IGROV1 ovarian"}, "[11]": {"tested_on": "NCI-H460 NSCLC"}, "[12]": {"tested_on": "HOP-92 NSCLC"}, "[13]": {"tested_on": "SK-MEL-2 melanoma"}}, "note": "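GI50 = concentration required for 50% inhibition of growth. Definition used: TGI = concentration required for complete inhibition of growth.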"}
{"smiles": "Nc1nc(OCc2cc(Br)cs2)c2[nH]cnc2n1", "values": [{"measurement": "GI50", "setting": "[1]", "result": 51.7, "unit": "µM"}, {"measurement": "TGI", "setting": "[1]", "result": "> 100", "unit": "µM"}, {"measurement": "GI50", "setting": "[2]", "result": 4.73, "unit": "µM"}, {"measurement": "TGI", "setting": "[2]", "result": "> 100", "unit": "µM"}, {"measurement": "GI50", "setting": "[3]", "result": 55.1, "unit": "µM"}, {"measurement": "TGI", "setting": "[3]", "result": "> 100", "unit": "µM"}, {"measurement": "GI50", "setting": "[4]", "result": 20.4, "unit": "µM"}, {"measurement": "TGI", "setting": "[4]", "result": 40.4, "unit": "µM"}, {"measurement": "GI50", "setting": "[5]", "result": 47.9, "unit": "µM"}, {"measurement": "TGI", "setting": "[5]", "result": "> 100", "unit": "µM"}, {"measurement": "GI50", "setting": "[6]", "result": 72.9, "unit": "µM"}, {"measurement": "TGI", "setting": "[6]", "result": "> 100", "unit": "µM"}, {"measurement": "GI50", "setting": "[7]", "result": 18, "unit": "µM"}, {"measurement": "TGI", "setting": "[7]", "result": 35.8, "unit": "µM"}, {"measurement": "GI50", "setting": "[8]", "result": 27.3, "unit": "µM"}, {"measurement": "TGI", "setting": "[8]", "result": "> 100", "unit": "µM"}, {"measurement": "GI50", "setting": "[9]", "result": 40.9, "unit": "µM"}, {"measurement": "TGI", "setting": "[9]", "result": "> 100", "unit": "µM"}, {"measurement": "GI50", "setting": "[10]", "result": 30.7, "unit": "µM"}, {"measurement": "TGI", "setting": "[10]", "result": "> 100", "unit": "µM"}, {"measurement": "GI50", "setting": "[11]", "result": 40.3, "unit": "µM"}, {"measurement": "TGI", "setting": "[11]", "result": "> 100", "unit": "µM"}, {"measurement": "GI50", "setting": "[12]", "result": 40.8, "unit": "µM"}, {"measurement": "TGI", "setting": "[12]", "result": "> 100", "unit": "µM"}, {"measurement": "GI50", "setting": "[13]", "result": 35.5, "unit": "µM"}, {"measurement": "TGI", "setting": "[13]", "result": 73.6, "unit": "µM"}]}
